According to patent US20130310439A1, “METHOD OF REDUCING PROTEINS MISFOLDING AND/OR AGGREGATION” (Universidade De Lisboa, priority 2010, published 2013):

System: Q35 animals (C. elegans model of polyQ aggregation)
Assay: polyQ aggregation in Q35 animals treated with cholinergic agonists
Assay type: in vivo
Details: one day old (L1s) Q35 animals
Experimental: FIG. 1A: One day old (L1s) Q35 animals were treated with 25 μM levamisole or 1 mM nicotine. The white boxes indicate magnified areas shown below. The photographs are from 4 days old animals.
FIG. 1B are bar graphs showing the number of aggregates in Q35 animals treated with nicotine, levamisole or control animals as a function of age (days).
Additional methods are described in Garcia et al. (2007), Genes and Development 21: 3006-16.

Row | Structure (SMILES) | polyQ aggregation compared to control animals (25 μM levamisole) | polyQ aggregation compared to control animals (1 mM nicotine)
1 | c1ccc([C@H]2CN3CCSC3=N2)cc1 [levamisole] | increased polyQ aggregation | 
2 | CN1CCCC1c1cccnc1 (centres unmarked) [nicotine] |  | increased polyQ aggregation
